For four molecules, IC50 results are on record in ChEMBL document CHEMBL5728204, “Spiro[3H-indole-3,2′-pyrrolidin]-2(1H)-one compounds and derivatives as MDM2-P53 inhibitors” (2021).

Where “and” joins values, the source holds several entries; their conditions need not be identical. Equal values may be shown once.

The nature of this assay: A mix consisting of 20 nM GST-MDM2 protein (aa 23-117) and 20 nM biotinylated p53 wt peptide (encompassing aa 16-27 of wt human p53, amino acid sequence QETFSDLWKLLP-Ttds-Lys-Biotin, molecular weight 2132.56 g/mol) is prepared in assay buffer (50 mM Tris/HCl pH 7.2; 120 mM NaCl; 0.1% bovine serum albumin (BSA); 5 mM dithiothreitol (DTT); 1 mM ethylenediaminetetraacetic acid (EDTA); 0.01% Tween 20). 30 μL of the mix is added to the compound dilutions and incubated for 15 min at rt while gently shaking the plate at 300 rounds per minute (rpm). Subsequently, 15 μL of premixed AlphaLISA Glutathione Acceptor Beads and AlphaScreen Streptavidin Donor Beads from PerkinElmer (in assay buffer at a concentration of 10 μg/mL each) are added and the samples are incubated for 30 min at rt in the dark (shaking 300 rpm). Afterwards, the signal is measured in a PerkinElmer Envision HTS Multilabel Reader using the AlphaScreen protocol from PerkinElmer.Each plate contains negative controls where biotinylated p53-peptide and GST-MDM2 are left out and replaced by assay buffer. Negative control values are entered as low basis value when using the software GraphPad Prism for calculations.
The term IC50 denotes the concentration at which inhibition is half-maximal. Consider `CC(C1CC1)N1[C@H]2CCn3c(nc4cc(S(C)(=O)=O)ccc43)[C@H]2[C@H](c2cccc(Cl)c2F)[C@]12C(=O)Nc1cc(Cl)ccc12` (some centres undefined), for which the IC50 is 12 nM and 7 nM.
Turning to `COC(=O)c1ccc2c(c1)nc1n2CC[C@H]2[C@@H]1[C@H](c1cccc(Cl)c1F)[C@]1(C(=O)Nc3cc(Cl)ccc31)N2CC1CC1`, the half-inhibitory concentration (IC50) was 3 nM.
The same measure for `CS(=O)(=O)OCCN1[C@H]2CCn3c(nc4cc(C(=O)O)ccc43)[C@H]2[C@H](c2cccc(Cl)c2F)[C@]12C(=O)Nc1cc(Cl)ccc12`: 58 nM; for `CC(=O)Nc1ccc2c(c1)nc1n2CC[C@H]2[C@@H]1[C@H](c1cccc(Cl)c1F)[C@]1(C(=O)Nc3cc(Cl)ccc31)N2C(C)C1CC1` (some centres undefined): 15 nM.
